Measured values as given in ChEMBL document CHEMBL1201862, “PubChem BioAssay data set” (2004).
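Test compounds were applied to cells in 96-well plates for 48 hours at 5 doses. GI50 is the concentration that inhibits growth by half.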 Calls of active or inactive are those of the source. Cut-off read from the data, not from the text of the source: active = GI50 up to about 1.1 µM and inactive = higher.

Key:
Assay in all cases: inhibition of tumour cell growth, NCI panel, 48 h
A549 = tested on: A549
ACHN = tested on: ACHN
BT-549 = tested on: BT-549
HCT-116 = tested on: HCT-116
K562 = tested on: K562
LOX IMVI = tested on: LOX IMVI
M14 = tested on: M14
MCF7 = tested on: MCF7
MOLT-4 = tested on: MOLT-4
NCI-H460 = tested on: NCI-H460
OVCAR-4 = tested on: OVCAR-4
RPMI-8226 = tested on: RPMI-8226
SF-539 = tested on: SF-539
SK-MEL-2 = tested on: SK-MEL-2
SK-MEL-5 = tested on: SK-MEL-5
SR = tested on: SR
T47D = tested on: T47D
UO-31 = tested on: UO-31
HT-29 = tested on: HT-29

In the case of `CCN1C(=O)CS/C1=N\NC(=O)CSc1nc2ccccc2c(=O)n1CC`, the GI50 (A549) is reported as > 100 µM (inactive), the GI50 (ACHN) is reported as > 100 µM (inactive) and the GI50 (BT-549) is reported as > 100 µM (inactive). The GI50 (HCT-116) was > 100 µM (inactive), the GI50 (K562) was > 100 µM (inactive) and the GI50 (LOX IMVI) was > 100 µM (inactive). The GI50 (M14) was > 100 µM (inactive), the GI50 (MCF7) was > 100 µM (inactive) and the GI50 (MOLT-4) was > 100 µM (inactive). For the same compound, the GI50 (NCI-H460) was 10.3 µM (inactive), the GI50 (OVCAR-4) was > 100 µM (inactive) and the GI50 (RPMI-8226) was > 100 µM (inactive). For the same compound, the GI50 (SF-539) was > 100 µM (inactive), the GI50 (SK-MEL-2) was > 100 µM (inactive) and the GI50 (SK-MEL-5) was > 100 µM (inactive). The GI50 (SR) was > 100 µM (inactive), the GI50 (T47D) was > 100 µM (inactive) and the GI50 (UO-31) was > 100 µM (inactive).

In the case of `S=C1Cc2c(-c3ccccc3)cc(-c3ccc(Cl)cc3)nc2-c2ccccc2N1`, the GI50 (A549) is reported as 3.17 µM (inactive), the GI50 (ACHN) is reported as 1.04 µM (active) and the GI50 (BT-549) is reported as 5.56 µM (inactive). The GI50 (HCT-116) was 1.85 µM (inactive), the GI50 (HT-29) was 2.65 µM (inactive) and the GI50 (LOX IMVI) was 3.41 µM (inactive). For the same compound, the GI50 (M14) was 3.97 µM (inactive), the GI50 (MCF7) was 15.1 µM (inactive) and the GI50 (MOLT-4) was 3.79 µM (inactive). The GI50 (NCI-H460) was 3.27 µM (inactive), the GI50 (OVCAR-4) was 0.42 µM (active) and the GI50 (RPMI-8226) was > 100 µM (inactive). For the same compound, the GI50 (SF-539) was 3.08 µM (inactive), the GI50 (SK-MEL-2) was 6.85 µM (inactive) and the GI50 (SK-MEL-5) was 3.47 µM (inactive). For the same compound, the GI50 (SR) was > 68.7 µM (inactive), the GI50 (T47D) was 4.32 µM (inactive) and the GI50 (UO-31) was 1.96 µM (inactive).

`CC(=O)OCC1OC(NC(=S)CCSc2nc3ccccc3c(=O)n2-c2ccccc2)C(OC(C)=O)C(OC(C)=O)C1OC(C)=O` (stereo not drawn) was tested, and the GI50 (A549) was > 100 µM (inactive), the GI50 (ACHN) was 83.4 µM (inactive) and the GI50 (BT-549) was 31.4 µM (inactive). For the same compound, the GI50 (HCT-116) was 73.5 µM (inactive), the GI50 (HT-29) was > 100 µM (inactive) and the GI50 (K562) was 34.2 µM (inactive). For the same compound, the GI50 (LOX IMVI) was 79.6 µM (inactive), the GI50 (M14) was 46.1 µM (inactive) and the GI50 (MCF7) was > 100 µM (inactive). For the same compound, the GI50 (MOLT-4) was 30 µM (inactive), the GI50 (NCI-H460) was > 100 µM (inactive) and the GI50 (RPMI-8226) was > 100 µM (inactive). The GI50 (SF-539) was 1.64 µM (inactive), the GI50 (SK-MEL-2) was 22.1 µM (inactive) and the GI50 (SK-MEL-5) was 45 µM (inactive). The GI50 (SR) was 34.1 µM (inactive), the GI50 (T47D) was 30.5 µM (inactive) and the GI50 (UO-31) was 42 µM (inactive).

`Cc1ccc(S(=O)(=O)N2CCN(CCO)CCN(S(=O)(=O)c3ccc(C)cc3)CCN(CCO)CC2)cc1` was tested, and the GI50 (A549) was 20.7 µM (inactive), the GI50 (ACHN) was 31 µM (inactive) and the GI50 (BT-549) was 60.8 µM (inactive). The GI50 (HCT-116) was 15 µM (inactive), the GI50 (HT-29) was 12.2 µM (inactive) and the GI50 (K562) was 17.1 µM (inactive). For the same compound, the GI50 (LOX IMVI) was 13.6 µM (inactive), the GI50 (M14) was 17.1 µM (inactive) and the GI50 (MCF7) was 13.4 µM (inactive). The GI50 (MOLT-4) was 19.7 µM (inactive), the GI50 (NCI-H460) was 14.3 µM (inactive) and the GI50 (OVCAR-4) was 15 µM (inactive). The GI50 (SF-539) was 15.8 µM (inactive), the GI50 (SK-MEL-2) was 16.5 µM (inactive) and the GI50 (SK-MEL-5) was 13.6 µM (inactive). The GI50 (SR) was 12.3 µM (inactive), the GI50 (T47D) was 17.5 µM (inactive) and the GI50 (UO-31) was 22.6 µM (inactive).

`N#CCC(=O)N/N=C\C(O)C(O)C(O)C(O)CO` (stereo not drawn) was tested, and the GI50 (A549) was > 100 µM (inactive), the GI50 (ACHN) was > 100 µM (inactive) and the GI50 (BT-549) was > 100 µM (inactive). For the same compound, the GI50 (HT-29) was > 100 µM (inactive), the GI50 (K562) was > 100 µM (inactive) and the GI50 (LOX IMVI) was > 100 µM (inactive). The GI50 (M14) was > 100 µM (inactive), the GI50 (MCF7) was > 100 µM (inactive) and the GI50 (MOLT-4) was > 100 µM (inactive). The GI50 (NCI-H460) was > 100 µM (inactive), the GI50 (RPMI-8226) was > 100 µM (inactive) and the GI50 (SF-539) was > 100 µM (inactive). For the same compound, the GI50 (SK-MEL-2) was > 100 µM (inactive), the GI50 (SK-MEL-5) was > 100 µM (inactive) and the GI50 (SR) was > 100 µM (inactive). For the same compound, the GI50 (T47D) was > 100 µM (inactive) and the GI50 (UO-31) was > 100 µM (inactive).

`CCCCCCCCCCC1OC([C@@H](O)CC[C@H](O)C2CC[C@@H](CCCCCCCC(O)CC3=CC(C)OC3=O)O2)CCC1O` (stereo partly drawn) was tested, and the GI50 (A549) was 5.21 µM (inactive), the GI50 (ACHN) was 6.38 µM (inactive) and the GI50 (BT-549) was 12.4 µM (inactive). For the same compound, the GI50 (HCT-116) was 0.148 µM (active), the GI50 (HT-29) was 5.4 µM (inactive) and the GI50 (K562) was 0.204 µM (active). The GI50 (LOX IMVI) was 1.27 µM (inactive), the GI50 (M14) was 8.04 µM (inactive) and the GI50 (MCF7) was 6.79 µM (inactive). For the same compound, the GI50 (NCI-H460) was 1.52 µM (inactive), the GI50 (OVCAR-4) was 8.61 µM (inactive) and the GI50 (RPMI-8226) was 3.59 µM (inactive). The GI50 (SF-539) was 14.4 µM (inactive), the GI50 (SK-MEL-2) was 9.08 µM (inactive) and the GI50 (SK-MEL-5) was 0.115 µM (active). The GI50 (SR) was 0.0025 µM (active), the GI50 (T47D) was 7.71 µM (inactive) and the GI50 (UO-31) was 4.41 µM (inactive).

In the case of `O=C1OC(c2ccccc2)=N/C1=C\c1cccc(F)c1`, the GI50 (A549) is reported as > 100 µM (inactive), the GI50 (ACHN) is reported as > 100 µM (inactive) and the GI50 (BT-549) is reported as 32.4 µM (inactive). For the same compound, the GI50 (HCT-116) was > 100 µM (inactive), the GI50 (HT-29) was > 100 µM (inactive) and the GI50 (K562) was > 100 µM (inactive). For the same compound, the GI50 (LOX IMVI) was 22.2 µM (inactive), the GI50 (M14) was 57.8 µM (inactive) and the GI50 (MCF7) was > 100 µM (inactive). The GI50 (MOLT-4) was 32.3 µM (inactive), the GI50 (NCI-H460) was 60.5 µM (inactive) and the GI50 (OVCAR-4) was 31.3 µM (inactive). The GI50 (RPMI-8226) was 19.7 µM (inactive), the GI50 (SK-MEL-2) was > 100 µM (inactive) and the GI50 (SK-MEL-5) was 51.4 µM (inactive). The GI50 (SR) was 22.9 µM (inactive), the GI50 (T47D) was > 100 µM (inactive) and the GI50 (UO-31) was > 100 µM (inactive).

In the case of `Cc1cc(C)c2c(n1)S(=O)(=O)N(CCCN1CCN(c3cccc(Cl)c3)CC1)C(C(=O)c1ccccc1)=C2O`, the GI50 (A549) is reported as 30.4 µM (inactive), the GI50 (ACHN) is reported as 30.6 µM (inactive) and the GI50 (BT-549) is reported as 52.6 µM (inactive). For the same compound, the GI50 (HCT-116) was 24.2 µM (inactive), the GI50 (HT-29) was 30.8 µM (inactive) and the GI50 (K562) was 35.6 µM (inactive). For the same compound, the GI50 (LOX IMVI) was 6.01 µM (inactive), the GI50 (M14) was 25.6 µM (inactive) and the GI50 (MCF7) was 29.8 µM (inactive). The GI50 (MOLT-4) was 7.82 µM (inactive), the GI50 (NCI-H460) was 18.5 µM (inactive) and the GI50 (OVCAR-4) was 24.7 µM (inactive). For the same compound, the GI50 (SF-539) was 40.6 µM (inactive), the GI50 (SK-MEL-2) was 32.4 µM (inactive) and the GI50 (SK-MEL-5) was 21.6 µM (inactive). For the same compound, the GI50 (SR) was 17.1 µM (inactive), the GI50 (T47D) was 38.8 µM (inactive) and the GI50 (UO-31) was 19.2 µM (inactive).
